Biological target: T1, viral kinase pUL-97 (Human cytomegalovirus, UniProt P16788)
T1 construct: The pUL-97 gene was cloned into a baculovirus vector; GST (glutathione S-transferase) (N); made in house; host or cells: Sf9 insect cells, baculovirus
Experiment: UL97 kinase assay on Immobilon plate
Format: biochemical
Conditions: inhibition of UL 97 kinase activity; class by IC50 / % inhibition at 10 μM or 100 μM; read-out: Activity Class [A, B, C]
Method in brief: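 GST-pUL97 from baculovirus-infected Sf9 cells phosphorylated myelin basic protein with ATP (3 μM in the added assay buffer) and γ-[33P]ATP in Tris-HCl pH 7.5 buffer with MnCl2 and DTT. Reaction ran 1 h at 30 °C with graded compound concentrations and was stopped with EDTA. 33P incorporation was measured by scintillation after filter capture and phosphoric acid washes.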

T1 sequence (P16788 whole entry): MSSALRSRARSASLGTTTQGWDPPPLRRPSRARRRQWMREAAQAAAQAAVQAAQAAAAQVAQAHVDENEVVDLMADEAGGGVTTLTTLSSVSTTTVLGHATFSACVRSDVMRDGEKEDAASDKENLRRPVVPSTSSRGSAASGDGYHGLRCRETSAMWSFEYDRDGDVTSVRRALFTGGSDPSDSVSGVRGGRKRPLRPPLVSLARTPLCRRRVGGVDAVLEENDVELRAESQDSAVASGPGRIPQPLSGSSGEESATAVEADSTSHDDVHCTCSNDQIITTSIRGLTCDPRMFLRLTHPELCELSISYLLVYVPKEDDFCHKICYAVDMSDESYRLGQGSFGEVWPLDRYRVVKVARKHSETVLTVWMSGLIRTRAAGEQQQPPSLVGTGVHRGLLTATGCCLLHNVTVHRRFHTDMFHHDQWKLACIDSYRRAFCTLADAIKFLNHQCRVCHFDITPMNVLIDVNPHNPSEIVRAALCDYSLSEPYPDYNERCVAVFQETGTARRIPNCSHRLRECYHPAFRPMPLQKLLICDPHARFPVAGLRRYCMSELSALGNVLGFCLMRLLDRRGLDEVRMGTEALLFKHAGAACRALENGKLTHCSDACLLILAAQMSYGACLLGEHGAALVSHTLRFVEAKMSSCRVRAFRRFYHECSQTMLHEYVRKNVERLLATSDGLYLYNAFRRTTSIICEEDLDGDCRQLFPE

SMILES | IC50 [µM]
COc1ccc(N2CCN(c3cncc(-c4cccc(C)c4C)n3)CC2)cc1OC [compound 226, 4-(3,4-Dimethoxy-phenyl)-6′-(2,3-dimethyl-phenyl)-3,4,5,6-tetrahydro-2H-[1,2′]bipyrazinyl] | 10 to 100
COc1cccc(N2CCN(c3cncc(-c4ccc(F)cc4)n3)CC2)c1 [compound 367, 6′-(4-Fluoro-phenyl)-4-(3-methoxy-phenyl)-3,4,5,6-tetrahydro-2H-[1,2′]bipyrazinyl] | 1 to 10
COc1ccc(N2CCN(c3cncc(-c4ccc(C(N)=O)cc4)n3)CC2)cc1 [compound 290, 4-[4-(4-Methoxy-phenyl)-3,4,5,6-tetrahydro-2H-[1,2′]bipyrazinyl-6′-yl]-benzamide] | < 1
Cc1ccc(-c2cncc(N3CCN(c4cnccn4)CC3)n2)cc1 [compound 330, 6-p-Tolyl-2′,3′,5′,6′-tetrahydro-[2,1′;4′,2″]terpyrazine] | 1 to 10
Cc1ccc(-c2cncc(N3CCN(c4ccccc4)CC3)n2)cc1 [compound 245, 4-Phenyl-6′-p-tolyl-3,4,5,6-tetrahydro-2H-[1,2′]bipyrazinyl] | 1 to 10
Cc1cc(C)cc(-c2cncc(N3CCN(c4cnccn4)CC3)n2)c1 [compound 344, 6-(3,5-Dimethyl-phenyl)-2′,3′,5′,6′-tetrahydro-[2,1′;4′,2″]terpyrazine] | 10 to 100
FC(F)(F)c1ccc(N2CCN(c3cncc(-c4ccc5ccccc5c4)n3)CC2)cc1 [compound 352, 6′-Naphthalen-2-yl-4-(4-trifluoromethyl-phenyl)-3,4,5,6-tetrahydro-2H-[1,2′]bipyrazinyl] | 1 to 10
Fc1ccc(N2CCN(c3cncc(-c4ccc5ccccc5c4)n3)CC2)cc1 [compound 267, 4-(4-Fluoro-phenyl)-6′-naphthalen-2-yl-3,4,5,6-tetrahydro-2H-[1,2′]bipyrazinyl] | < 1
Cc1ccc(-c2cncc(N3CCN(c4ccccc4F)CC3)n2)cc1 [compound 248, 4-(2-Fluoro-phenyl)-6′-p-tolyl-3,4,5,6-tetrahydro-2H-[1,2′]bipyrazinyl] | 10 to 100
OCc1ccc(-c2cncc(N3CCN(c4ccncc4)CC3)n2)cc1 [compound 258, [4-(4-Pyridin-4-yl-3,4,5,6-tetrahydro-2H-[1,2′]bipyrazinyl-6′-yl)-phenyl]-methanol] | 1 to 10
Cc1ccc(N2CCN(c3cncc(-c4ccc(CO)cc4)n3)CC2)c(C)c1 [compound 321, {4-[4-(2,4-Dimethyl-phenyl)-3,4,5,6-tetrahydro-2H-[1,2′]bipyrazinyl-6′-yl]-phenyl}-methanol] | 10 to 100
CC(=O)c1ccc(N2CCN(c3cncc(-c4ccoc4)n3)CC2)cc1 [compound 205, 1-[4-(6′-Furan-3-yl-2,3,5,6-tetrahydro-[1,2′]bipyrazinyl-4-yl)-phenyl]-ethanone] | 1 to 10
CN(C)c1ccc(-c2cncc(N3CCN(c4cnccn4)CC3)n2)cc1 [compound 343, Dimethyl-[4-(2′,3′,5′,6′-tetrahydro-[2,1′;4′,2″]terpyrazin-6-yl)-phenyl]-amine] | 1 to 10
Fc1cccc(-c2cncc(N3CCN(c4ccccc4F)CC3)n2)c1 [compound 198, 4-(2-Fluoro-phenyl)-6′-(3-fluoro-phenyl)-3,4,5,6-tetrahydro-2H-[1,2′]bipyrazinyl] | 10 to 100
COc1ccc(-c2cncc(N3CCN(c4ccc(C)cc4)CC3)n2)cc1F [compound 265, 6′-(3-Fluoro-4-methoxy-phenyl)-4-p-tolyl-3,4,5,6-tetrahydro-2H-[1,2′]bipyrazinyl] | 10 to 100
COc1cccc(-c2cncc(N3CCN(c4cccc(OC)c4)CC3)n2)c1 [compound 366, 4,6′-Bis-(3-methoxy-phenyl)-3,4,5,6-tetrahydro-2H-[1,2′]bipyrazinyl] | 1 to 10
c1ccc2c(-c3cncc(N4CCN(c5ccncc5)CC4)n3)cccc2c1 [compound 221, 6′-Naphthalen-1-yl-4-pyridin-4-yl-3,4,5,6-tetrahydro-2H-[1,2′]bipyrazinyl] | 1 to 10
Cc1cc(C)cc(-c2cncc(N3CCN(c4ccc(Cl)c(Cl)c4)CC3)n2)c1 [compound 358, 4-(3,4-Dichloro-phenyl)-6′-(3,5-dimethyl-phenyl)-3,4,5,6-tetrahydro-2H-[1,2′]bipyrazinyl] | 10 to 100
CN(C)c1ccc(-c2cncc(N3CCN(c4ccc(Cl)c(Cl)c4)CC3)n2)cc1 [compound 357, {4-[4-(3,4-Dichloro-phenyl)-3,4,5,6-tetrahydro-2H-[1,2′]bipyrazinyl-6′-yl]-phenyl}-dimethyl-amine] | 10 to 100

Same assay, conditions: inhibition of UL 97 kinase activity; class by IC50 / % inhibition at 10 or 100 μM; read-out: Activity Class [A, B, C]

SMILES | IC50 [µM]
Fc1ccc(N2CCN(c3cncc(-c4cccc(F)c4)n3)CC2)cc1 [compound 181, 4-(4-Fluoro-phenyl)-6′-(3-fluoro-phenyl)-3,4,5,6-tetrahydro-2H-[1,2′]bipyrazinyl] | 10 to 100
COc1ccccc1N1CCN(c2cncc(-c3ccsc3)n2)CC1 [compound 85, 4-(2-Methoxy-phenyl)-6′-thiophen-3-yl-3,4,5,6-tetrahydro-2H-[1,2′]bipyrazinyl] | 10 to 100
CCOc1ccc(-c2cncc(N3CCN(c4ccccc4)CC3)n2)cc1 [compound 121, 6′-(4-Ethoxy-phenyl)-4-phenyl-3,4,5,6-tetrahydro-2H-[1,2′]bipyrazinyl] | 1 to 10
Cc1cccc(-c2cncc(N3CCN(c4cccc(C(F)(F)F)c4)CC3)n2)c1 [compound 154, 6′-m-Tolyl-4-(3-trifluoromethyl-phenyl)-3,4,5,6-tetrahydro-2H-[1,2′]bipyrazinyl] | 10 to 100
Fc1ccc(-c2cncc(N3CCN(c4ccccn4)CC3)n2)c(F)c1 [compound 19, 6′-(2,4-Difluoro-phenyl)-4-pyridin-2-yl-3,4,5,6-tetrahydro-2H-[1,2′]bipyrazinyl] | 10 to 100
FC(F)(F)c1cccc(N2CCN(c3cncc(-c4csc5ccccc45)n3)CC2)c1 [compound 158, 6′-Benzo[b]thiophen-3-yl-4-(3-trifluoromethyl-phenyl)-3,4,5,6-tetrahydro-2H-[1,2′]bipyrazinyl] | 10 to 100
Cc1ccc(-c2cncc(N3CCN(c4ccccn4)CC3)n2)cc1C [compound 50, 6′-(3,4-Dimethyl-phenyl)-4-pyridin-2-yl-3,4,5,6-tetrahydro-2H-[1,2′]bipyrazinyl] | 1 to 10
Cc1ccc(N2CCN(c3cncc(-c4ccc(F)cc4)n3)CC2)cc1 [compound 136, 6′-(4-Fluoro-phenyl)-4-p-tolyl-3,4,5,6-tetrahydro-2H-[1,2′]bipyrazinyl] | 1 to 10
c1cncc(-c2cncc(N3CCN(c4cccc5[nH]ccc45)CC3)n2)c1 [compound 64, 4-(1H-Indol-4-yl)-6′-pyridin-3-yl-3,4,5,6-tetrahydro-2H-[1,2′]bipyrazinyl] | 1 to 10
COc1ccc2cc(-c3cncc(N4CCN(c5ccc(OC)c(OC)c5)CC4)n3)ccc2c1 [compound 169, 4-(3,4-Dimethoxy-phenyl)-6′-(6-methoxy-naphthalen-2-yl)-3,4,5,6-tetrahydro-2H-[1,2′]bipyrazinyl] | 1 to 10
COc1ccc(-c2cncc(N3CCN(c4cccc(C(F)(F)F)c4)CC3)n2)cc1OC [compound 161, 6′-(3,4-Dimethoxy-phenyl)-4-(3-trifluoromethyl-phenyl)-3,4,5,6-tetrahydro-2H-[1,2′]bipyrazinyl] | 10 to 100
Fc1ccc(-c2cncc(N3CCN(c4ccccc4)CC3)n2)cc1 [compound 111, 6′-(4-Fluoro-phenyl)-4-phenyl-3,4,5,6-tetrahydro-2H-[1,2′]bipyrazinyl] | 1 to 10
N#Cc1ccccc1N1CCN(c2cncc(-c3ccc(F)c(Cl)c3)n2)CC1 [compound 62, 2-[6′-(3-Chloro-4-fluoro-phenyl)-2,3,5,6-tetrahydro-[1,2′]bipyrazinyl-4-yl]-benzonitrile] | 1 to 10
CC(=O)c1ccc(-c2cncc(N3CCN(c4ccccc4F)CC3)n2)cc1 [compound 130, 1-{4-[4-(2-Fluoro-phenyl)-3,4,5,6-tetrahydro-2H-[1,2′]bipyrazinyl-6′-yl]-phenyl}-ethanone] | 1 to 10
Cc1ccccc1-c1cncc(N2CCN(c3ccccc3)CC2)n1 [compound 94, 4-Phenyl-6′-o-tolyl-3,4,5,6-tetrahydro-2H-[1,2′]bipyrazinyl] | 10 to 100
Fc1ccc(-c2cncc(NCc3ccco3)n2)c(F)c1 [compound 48, [6-(2,4-Difluoro-phenyl)-pyrazin-2-yl]-furan-2-ylmethyl-amine] | 1 to 10
COc1ccc(OC)c(-c2cncc(N3CCN(c4ccc(F)cc4F)CC3)n2)c1 [compound 144, 4-(2,4-Difluoro-phenyl)-6′-(2,5-dimethoxy-phenyl)-3,4,5,6-tetrahydro-2H-[1,2′]bipyrazinyl] | 10 to 100
COc1ccc(-c2cncc(N3CCN(c4cccc(Cl)c4)CC3)n2)cc1OC [compound 100, 4-(3-Chloro-phenyl)-6′-(3,4-dimethoxy-phenyl)-3,4,5,6-tetrahydro-2H-[1,2′]bipyrazinyl] | 1 to 10
COc1ccc(N2CCN(c3cncc(-c4ccc(CN)cc4)n3)CC2)cc1OC [compound 60, 4-[4-(3,4-Dimethoxy-phenyl)-3,4,5,6-tetrahydro-2H-[1,2′]bipyrazinyl-6′-yl]-benzylamine] | 10 to 100
N#Cc1ccc(-c2cncc(N3CCN(c4ccncc4)CC3)n2)cc1 [compound 131, 4-(4-Pyridin-4-yl-3,4,5,6-tetrahydro-2H-[1,2′]bipyrazinyl-6′-yl)-benzonitrile] | 1 to 10
Nc1ncc(-c2ccc3ccccc3c2)nc1N1CCN(c2ccncc2)CC1 [compound 73, 6′-Naphthalen-2-yl-4-pyridin-4-yl-3,4,5,6-tetrahydro-2H-[1,2′]bipyrazinyl-3′-ylamine] | < 1
COc1cc(-c2cncc(N3CCN(c4cccc5[nH]ccc45)CC3)n2)cc(OC)c1OC [compound 37, 4-(1H-Indol-4-yl)-6′-(3,4,5-trimethoxy-phenyl)-3,4,5,6-tetrahydro-2H-[1,2′]bipyrazinyl] | 10 to 100
